{"source": "patent US7807682B2", "about": "“Pyridyl cyanoguanidine compounds” (Leo Pharma A/S, priority 2001, dated 2010)", "origin": "cited, not measured here", "key": {"[1]": {"system": "normal human endothelial cells"}, "[2]": {"system": "human tumour cells", "conditions": "nude mice transplanted with human tumour cells, also paclitaxel-resistant tumour cells"}}, "data": [{"molecule": "N#CNC(=Nc1ccncc1)NCCCCCCOc1ccc(Cl)cc1", "note": "[N-(6-(4-chlorophenoxy)hexyl)-N′-cyano-N″-(4-pyridyl)guanidine]", "values": [{"measurement": "antiproliferative activity on normal human endothelial cells", "setting": "[1]", "value": "considerably less antiproliferative activity"}, {"measurement": "antitumour activity in vivo", "setting": "[2]", "value": "substantial antitumour activity"}]}]}
